Results taken from patent US11035852B2, “Identifying drug candidates for treating polycystic kidney disease using organoids generated from primary cells” (UMC Utrecht Holding B.V., priority 2011, dated 2021).
Entries after “also recorded” stand apart in the source; their conditions may differ. Read-outs that look alike come from different tables or passages of the source.

What was measured:
CFTR [1] = conditions: CFTR corrector, cited from earlier work; for EC50: read-out: Potency: EC50
CFTR [2] = biological target: T1, CFTR (Homo sapiens, UniProt P13569); format: cell-based; conditions: for Effect of CFTR inhibitors on forskolin-stimulated swelling: Example 2, 3 hours pre-incubation, 50 μM
Target sequence in this assay (P13569 whole entry, looked up): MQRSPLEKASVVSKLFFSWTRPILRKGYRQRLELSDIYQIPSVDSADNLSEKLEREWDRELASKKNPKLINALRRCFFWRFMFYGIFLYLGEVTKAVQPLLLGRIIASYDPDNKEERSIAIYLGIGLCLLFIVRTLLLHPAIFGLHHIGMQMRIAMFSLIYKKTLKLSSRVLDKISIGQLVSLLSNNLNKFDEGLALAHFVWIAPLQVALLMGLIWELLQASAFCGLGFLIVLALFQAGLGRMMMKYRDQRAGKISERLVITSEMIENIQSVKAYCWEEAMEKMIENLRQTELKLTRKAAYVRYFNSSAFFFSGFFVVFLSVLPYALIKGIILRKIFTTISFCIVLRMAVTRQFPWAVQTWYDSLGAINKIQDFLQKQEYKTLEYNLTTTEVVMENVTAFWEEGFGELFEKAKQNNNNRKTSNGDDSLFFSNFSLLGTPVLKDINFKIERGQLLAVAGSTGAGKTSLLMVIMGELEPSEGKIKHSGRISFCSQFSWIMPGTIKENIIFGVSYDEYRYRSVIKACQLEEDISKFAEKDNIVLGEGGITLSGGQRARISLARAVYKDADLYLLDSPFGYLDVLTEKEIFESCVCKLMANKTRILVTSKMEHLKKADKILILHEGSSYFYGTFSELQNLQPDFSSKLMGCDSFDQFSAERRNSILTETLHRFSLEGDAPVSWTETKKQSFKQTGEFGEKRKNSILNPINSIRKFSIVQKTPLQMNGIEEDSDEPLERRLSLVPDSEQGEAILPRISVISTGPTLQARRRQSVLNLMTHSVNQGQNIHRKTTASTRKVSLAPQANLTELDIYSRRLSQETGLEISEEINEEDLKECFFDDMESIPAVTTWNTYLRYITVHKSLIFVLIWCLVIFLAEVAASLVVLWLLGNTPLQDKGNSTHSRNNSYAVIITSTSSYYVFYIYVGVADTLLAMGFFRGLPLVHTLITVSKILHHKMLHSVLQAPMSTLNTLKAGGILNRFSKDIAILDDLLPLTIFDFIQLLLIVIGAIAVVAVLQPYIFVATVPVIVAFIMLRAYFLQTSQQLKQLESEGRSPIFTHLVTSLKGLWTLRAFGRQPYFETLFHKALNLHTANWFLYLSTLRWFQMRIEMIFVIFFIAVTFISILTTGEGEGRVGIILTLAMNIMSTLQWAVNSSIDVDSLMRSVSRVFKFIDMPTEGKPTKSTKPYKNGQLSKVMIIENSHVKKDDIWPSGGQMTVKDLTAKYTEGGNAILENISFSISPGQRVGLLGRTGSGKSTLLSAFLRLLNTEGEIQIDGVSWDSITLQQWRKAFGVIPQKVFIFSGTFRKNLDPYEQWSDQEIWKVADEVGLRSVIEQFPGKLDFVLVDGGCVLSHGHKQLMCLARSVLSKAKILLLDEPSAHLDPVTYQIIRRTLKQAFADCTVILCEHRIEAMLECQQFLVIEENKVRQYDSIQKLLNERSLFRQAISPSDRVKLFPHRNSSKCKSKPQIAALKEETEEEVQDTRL

CFTR [3] = biological target: T1, CFTR; conditions: cited from earlier work; for Ki: CFTR blocker, read-out: Potency: Ki
Target sequence in this assay (P13569 whole entry): as the sequence (P13569 whole entry, looked up) above

CFTR [4] = conditions: cited from earlier work
CFTR [5] = experiment: Organoid swelling on compound addition (organoid origin not stated; FIG. 7, FIG. 32); format: cell-based
CFTR [6] = biological target: CFTR (Mus musculus, UniProt P26361); experiment: Forskolin-induced swelling (FIS) of murine wild-type small intestinal organoids; conditions: live cell microscopy
Sequence of CFTR (Mus musculus, UniProt P26361) (P26361 whole entry): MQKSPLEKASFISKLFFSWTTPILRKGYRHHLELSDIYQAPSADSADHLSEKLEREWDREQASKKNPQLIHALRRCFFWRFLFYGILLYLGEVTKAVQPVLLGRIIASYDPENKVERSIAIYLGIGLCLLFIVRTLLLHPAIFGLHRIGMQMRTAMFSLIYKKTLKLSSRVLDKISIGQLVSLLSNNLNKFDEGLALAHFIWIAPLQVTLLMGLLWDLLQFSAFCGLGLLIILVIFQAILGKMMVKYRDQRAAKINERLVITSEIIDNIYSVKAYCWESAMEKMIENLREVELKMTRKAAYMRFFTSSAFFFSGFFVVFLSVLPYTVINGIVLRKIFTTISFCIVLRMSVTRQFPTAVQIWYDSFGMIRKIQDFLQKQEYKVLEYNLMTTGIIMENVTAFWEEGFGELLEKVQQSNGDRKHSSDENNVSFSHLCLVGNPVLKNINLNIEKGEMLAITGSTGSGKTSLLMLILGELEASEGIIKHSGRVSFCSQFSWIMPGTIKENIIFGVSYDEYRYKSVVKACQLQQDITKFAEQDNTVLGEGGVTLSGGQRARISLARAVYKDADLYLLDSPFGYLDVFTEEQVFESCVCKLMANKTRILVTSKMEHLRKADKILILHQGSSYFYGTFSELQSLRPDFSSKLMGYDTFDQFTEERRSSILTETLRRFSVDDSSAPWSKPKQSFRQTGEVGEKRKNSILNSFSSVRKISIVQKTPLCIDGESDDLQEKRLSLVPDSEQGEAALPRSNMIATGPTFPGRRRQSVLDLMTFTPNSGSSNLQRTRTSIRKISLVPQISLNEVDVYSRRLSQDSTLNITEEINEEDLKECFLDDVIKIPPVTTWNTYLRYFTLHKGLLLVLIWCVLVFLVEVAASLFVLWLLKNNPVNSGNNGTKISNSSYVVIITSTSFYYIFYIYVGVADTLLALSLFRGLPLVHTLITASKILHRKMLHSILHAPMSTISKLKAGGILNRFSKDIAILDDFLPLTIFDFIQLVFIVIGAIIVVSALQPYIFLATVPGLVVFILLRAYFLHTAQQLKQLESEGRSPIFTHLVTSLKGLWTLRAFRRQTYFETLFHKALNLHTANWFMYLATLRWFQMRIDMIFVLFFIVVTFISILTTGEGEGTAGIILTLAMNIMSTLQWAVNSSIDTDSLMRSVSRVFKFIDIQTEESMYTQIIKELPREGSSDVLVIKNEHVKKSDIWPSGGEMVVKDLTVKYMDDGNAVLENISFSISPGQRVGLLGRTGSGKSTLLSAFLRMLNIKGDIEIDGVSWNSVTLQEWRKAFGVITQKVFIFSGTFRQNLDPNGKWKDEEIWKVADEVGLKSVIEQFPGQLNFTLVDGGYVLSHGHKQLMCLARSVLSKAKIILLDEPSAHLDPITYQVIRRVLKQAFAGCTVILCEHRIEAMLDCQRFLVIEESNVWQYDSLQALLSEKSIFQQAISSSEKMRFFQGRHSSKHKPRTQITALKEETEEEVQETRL

[7] = cited from earlier work
[8] = human healthy control organoids

Compound: COc1ccc2nc(Nc3nc(O)cc(CSc4nc5ccccc5[nH]4)n3)nc(C)c2c1 [C1, 6-(1H-Benzoimidazol-2-ylsulfanyl-methyl)-2-(6-methoxy-4-methyl-quinazolin-2-ylamino)-pyrimidin-4-ol]
- Potency: Ks (CFTR [1]): Reference #** 11 Potency: Ks = 3 microM Solvent: DMSO Hints For Use: M.W.: 445.5

Compound: O=C(CNc1ccc2ccccc2c1)N/N=C/c1cc(Br)c(O)c(Br)c1O [B2, (Naphthalen-2-ylamino)-acetic acid (3,5-dibromo-2,4,- dihydroxy-benzylidene)-hydrazide]
- Effect of CFTR inhibitors on forskolin-stimulated swelling (CFTR [2]; [8]): reduced

Compound: Cc1ccc(C2Nc3ccccc3-n3c(-c4ccccc4)c4c(=O)n(C)c(=O)n(C)c4c32)o1 (centres unmarked) [B6, 7,9-dimethyl-11-phenyl-6-(5-methylfuran-2-yl)-5,6-dihydro-pyrimido-[4′,5′-3,4]pyrrolo[1,2-a]quinoxaline-8,10-(7H,9H)-dione]
- Ki (CFTR [3]): 0.09 µM

Compound: O=S(=O)(c1ccccc1)N1CCN(c2ccnc3cc(Cl)ccc23)CC1 [C10, 7-chloro-4-(4-(phenylsulfonyl)piperazin-1-yl)quinoline]
- EC50 (CFTR [1]): > 100 µM

Compound: ClCc1cc(-c2ccccc2OCc2ccccc2)no1 [P10, 3-(2-Benzyloxy-phenyl)-5-chloromethyl-isoxazole]
- Potency: Ks (CFTR [4]; CFTR potentiator): Reference #** 10 Potency: Ks >50 microM Solvent: DMSO Hints For Use: M.W.: 299.8

Compound: CNC[C@H](O)c1ccc(O)c(O)c1 [epinephrine]
- Organoid swelling on compound addition (CFTR [5]): forskolin-like swelling

Compound: COc1ccc2nc(Nc3nc(=O)c(C)c(C)[nH]3)nc(C)c2c1 [C16, 2-(6-methoxy-4-methylquina-zolin-2-ylamino)-5,6-dimethylpyrimi-din-4(1H)-one]
- EC50 (CFTR [1]): 15 µM

Compound: O=c1cc(-c2ccncc2)oc2c1ccc1ccccc12 [P8, 4-(4-Oxo-4H-benzo[h]chromen-2-yl)-pyridinium; bisulfate]
- Potency: Ks (CFTR [4]; CFTR potentiator): Reference #** 9 and 10 Potency: Ks = 2 microM Solvent: DMSO Hints For Use: M.W.: 371.4

Compound: Cc1ccc(S(=O)(=O)NC(=O)Nc2ccc([N+](=O)[O-])cc2)cc1 [B3, Diarylsulfonyl- urea]
- Ki (CFTR [3]): > 100 µM

Compound: Cc1cc(Nc2ccc(Br)cc2)nc2ccccc12 [C6, N-(4-bromophenyl)-4-methylquinolin-2-amine]
- EC50 (CFTR [1]): 8 µM

Compound: Cc1ccc(-c2csc(Nc3ccc(F)cc3)n2)cc1 [C12, N-(4-fluorophenyl)-4-p-tolylthiazol-2-amine]
- EC50 (CFTR [1]): 5 µM

Compound: C=C[C@@]1(C)CC(=O)[C@]2(O)[C@@]3(C)[C@@H](O)CCC(C)(C)[C@@H]3[C@H](O)[C@H](OC(C)=O)[C@@]2(C)O1 [forskolin, (3R,4aR,5S,6S,6aS,10S,10aR,10bS)-6,10,10b-trihydroxy-3,4a,7,7,10a-pentamethyl-1-oxo-3-vinyldodecahydro-1H-benzo[f]chromen-5-yl acetate]
- Organoid swelling induced by stimulus (CFTR [2]; [8]): rapid forskolin-stimulated swelling
- Increase in organoid size (CFTR [2]; human organoids, in the space of 120 minutes (FIG. 8)): more than double in size
- Organoid swelling on forskolin addition (CFTR [6]): rapid expansion of the lumen and total organoid surface area; also recorded: dose-dependent relation between forskolin and increase of surface area over time

Compound: O=C(Nc1ncc(C(c2ccccc2Cl)N2CCC(O)C2)s1)C1(c2ccc3c(c2)OCO3)CC1 (centres unmarked) [C18, 1-(benzo[d][1,3]di-oxol-5-yl)-N-(5-((2-chlorophenyl)(3-hydroxy-pyrrolidin-1-yl)methyl)thiazol-2-yl)cyclopropane carboxamide]
- Potency: Ks (CFTR [1]): Reference # 24 Name: CF-106951 Potency Ks ~0.6 microM Solvent: DMSO Hints for use: Use at 3 to 6 microM for maximum effect. M.W. 497.99

Compound: CC(C)c1ccc(NC(=O)C(c2ccccc2)N(C)C(=O)Cc2c[nH]c3ccccc23)cc1 (centres unmarked) [P2, 2-[(2-1H-lndol-3-yl-acetyl)-methyl-amino]-N-(4-isopropyl-phenyl)-2-phenyl-acetamide]
- Potency: Ks (CFTR [4]; CFTR potentiator): Reference #** 4 Name: PG-01 Potency:Ks = 300 nM Solvent: DMSO Hints For Use: M.W.: 439.5

Compound: Cc1cc(C)c2c(C)cc(Nc3ccccc3)nc2c1 [C5, 4,5,7-trimethyl N-phenylquinolin-2-amine]
- EC50 (CFTR [1]): 13 µM

Compound: O=C(N/N=C\c1ccc(O)c(O)c1)c1cc2ccccc2cc1O [C11, (Z)-N′-(3,4-dihydroxyben-zylidene)-3-hydroxy-2-naphtho-hydrazide]
- EC50 (CFTR [1]): 10 to 20 µM

Compound: C#CCCc1nn(-c2ccccc2)c(OC)c1C=O [P9, 3-But-3-ynyl-5-methoxy-1-phenyl-1H-pyrazole-4-carbaldehyde]
- Potency: Ks (CFTR [4]; CFTR potentiator): Reference #** 10 Potency: Ks = 10 microM Solvent: DMSO Hints For Use: M.W.: 254.3

Compound: CC(NCCc1ccc(O)cc1)C(O)c1ccc(O)cc1 (centres unmarked) [ritodrine]
- Organoid swelling on compound addition (CFTR [5]): forskolin-like swelling

Compound: C=Cc1ccc(-c2csc(Nc3ccccc3)n2)cc1 [C15, N-phenyl-4-(4-vinylphenyl) thiazol-2-amine]
- EC50 (CFTR [1]): 16 µM

Compound: O=c1[nH]c2cc(C(F)(F)F)ccc2n1-c1cccc(Cl)c1 [P4, 1-(3-chlorophenyl)-5-trifluoromethyl-3-hydrobenzi-midazol-2-one]
- Potency: Ks (CFTR [4]; CFTR potentiator): Reference #** 5 Name: UCCF-853 Potency: Ks = 3 microM Solvent: DMSO Hints For Use: M.W.: 312.7

Compound: NCCc1ccc(O)c(O)c1 [dopamine]
- Organoid swelling on compound addition (CFTR [5]): forskolin-like swelling

Compound: CC(C)(C)NCC(O)c1ccc(O)c(CO)c1 (centres unmarked) [salbutamol]
- Organoid swelling on compound addition (CFTR [5]): forskolin-like swelling

Compound: COc1ccc(Cl)cc1Nc1nc(-c2sc(NC(=O)C(C)(C)C)nc2C)cs1 [C17, N-(2-(5-chloro-2-methoxyphenylamino)-4′-methyl-4,5′-bithiazol-2′-yl)pivalamide]
- EC50 (CFTR [1]): 1 to 2 µM

Compound: O=C1c2c(O)cc(O)cc2OCC1c1ccc(O)cc1 (centres unmarked) [P6, 5,7,Dihydroxy-3-(4-hydroxy-phenyl)-chroman-4-one]
- Organoid swelling on compound addition (CFTR [5]): rapid organoid swelling
- Potency: Ks (CFTR [4]; CFTR potentiator): Reference #** 8 Name: Genistein (discontinued— available from Sigma #G6649) Potency: Ks = 10 to 30 microM Solvent: DMSO

Compound: CC(=O)c1cccc(Nc2nc(-c3sc(NC(=O)c4ccccc4)nc3C)cs2)c1 [C13, N-(2-(3-acetylphenyl-amino)-4′-methyl-4,5′-bithiazol-2′-yl)benzamide]
- EC50 (CFTR [1]): 2 µM

Compound: O=C1Cc2cc(C(F)(F)F)ccc2N1c1cc(Cl)ccc1O [P7, 1-(5-Chloro-2-hydroxy-phenyl)-5-trifluoromethyl-1,3-dihydro-indol-2-one]
- EC50 (CFTR [4]; CFTR potentiator, read-out: Potency: EC50): 3 µM
- Activity in excised patches (CFTR [4]; excised patches): Does not work in excised patches

Compound: COc1ccccc1Nc1ncc(-c2sc(NC(=O)c3ccccc3)nc2C)s1 [C14, N-(2′-(2-methoxyphenylamino)-4-methyl-5,5′-bithiazol-2-yl)benzamide]
- EC50 (CFTR [1]): 7 µM

Compound: COc1ccc(S(=O)(=O)N2CCN(C(C)c3nc(OC4CCCCC4)c4ccccc4n3)CC2)cc1 (centres unmarked) [C3, Cyclohexyloxy-2-{1-[4-(4-methoxy-benzensulfonyl)-piperazin-1-yl]-ethyl}-quinazoline]
- EC50 (CFTR [1]): 2 µM

Compound: O=C(O)c1ccc(/C=C2/SC(=S)N(c3cccc(C(F)(F)F)c3)C2=O)cc1 [B1, 4-[4-Oxo-2-thioxo-3-(3-trifluoromethyl-phenyl)-thiazolidin-5-ylidenemethyl]-benzoic acid]
- Effect of CFTR inhibitors on forskolin-stimulated swelling (CFTR [2]; [8]): reduced
- Ki (CFTR [3]): 0.3 µM
- Onset of inhibition (CFTR [3]; some cell types (eg. T84 cells), requiring prolonged incubation): Slow onset of inhibition

Compound: COc1ccc(Cl)cc1Nc1nc(-c2sc(NC(=O)c3ccccc3)nc2C)cs1 [C4, N-[2-(5-Chloro-2-methoxy-phenylamino)-4′-methyl-[4,5′]bithiazolyl-2′-yl]-benzamide]
- EC50 (CFTR [1]): 2 µM

Compound: CCN(c1ccccc1)S(=O)(=O)c1ccc2[nH]cc(C(=O)NCc3ccccc3OC)c(=O)c2c1 [P3, 6-(Ethyl-phenyl-sulfonyl)-4-oxo-1,4-dihydro-quinoline-3-carboxylic acid 2-methoxy-benzylamide]
- Potency: Ks (CFTR [4]; CFTR potentiator): Reference #** 4 Name: SF-03 Potency: Ks = 30 nM Solvent: DMSO Hints For Use: M.W.: 491.6

Compound: O=S(=O)(c1ccc(Cl)cc1)N1CCN(c2ccnc3cc(Cl)ccc23)CC1 [C9, 7-chloro-4-(4-(4-chlorophenylsul-fonyl)piperazin-1-yl)quinoline]
- EC50 (CFTR [1]): < 1 µM

Compound: Cc1ccc(O)c(-c2cc(-c3ccccc3)[nH]n2)c1 [P1, 4-Methyl-2-(5-phenyl-1H-pyrazol-3-yl)-phenol]
- Potency: Ks (CFTR [4]; CFTR potentiator): Reference #**12 & 15 Name: VRT-532 Potency: Ks 3 to 5 microM Solvent: DMSO Hints For Use: M.W.: 250

Compound: O=C(O)c1ccc(/C=C2\SC(=O)N(c3cccc(C(F)(F)F)c3)C2=O)cc1 [B8, 4-[[3-[3-(trifluoromethyl)phenyl]-2,4-dioxo-5-thiazolidinyli-dene]methyl]benzoic acid]
- Ki (CFTR [3]): ~1 µM
- Water solubility relative to Inh.-172 [7]: more water soluble than Inh.-172

Compound: NC(=O)c1c(NC(=O)c2ccccc2Cl)sc2c1CCCC2 [P5, 2-(2-Chloro-benzoylamino)-4,5,6,7-tetrahydro-benzo[b] thiophene-3-carboxylic acid amide]
- Potency: Ks (CFTR [4]; CFTR potentiator): Reference #** 6 Name: dF508act-02 Potency: Ks = 70 nM Solvent: DMSO Hints For Use: M.W.: 334.8

Compound: O=C1/C(=C/c2ccc(-c3nn[nH]n3)cc2)SC(=S)N1c1cccc(C(F)(F)F)c1 [B7, 5-[[4-(2h-tetrazol-5-yl)phenyl]methylene]-2-thioxo-3-[3-(trifluoromethyl)phenyl]-4-thiazolidinone]
- Ki (CFTR [3]): ~1 µM
- Water solubility relative to Inh.-172 [7]: more water soluble than Inh.-172

Compound: cholera toxin
- Increase in organoid size (CFTR [2]): more than double in size
- Organoid swelling induced by stimulus (CFTR [2]): induce swelling
- Time course of swelling response (CFTR [2]): delayed compared to forskolin
